{"source": "patent US11857567B2", "about": "“Hypertonic pharmaceutical compositions containing an anti-platinum chemoprotectant agent” (Decibel Therapeutics, Inc., priority 2018, dated 2024)", "system": "cisplatin-induced hearing loss in guinea pigs", "assay": "Hearing protection by locally delivered STS Composition from cisplatin challenge (ABR)", "type": "in vivo, guinea pig", "conditions": "at both 24 kHz and 32 kHz", "text": "Historical ABR data were used to define a baseline. The animals were anesthetized with tiletamine hydrochloride and zolazepam hydrochloride (Zoletil). Acoustic stimuli were delivered via an earphone. Needle electrodes were placed near the ear canal at the causoventral position, the vertex of the skull, and a ground at the lower leg. The stimulus level was from 10 to 90 dB in 5 dB steps, and the tone-pip frequencies were 4, 24, and 32 kHz. The ceiling sound pressure level was 90 dB. ABR threshold was observed by visual inspection of stacked waveforms as the lowest sound pressure level, at which the waveform was above the noise floor.\nAn aqueous composition of 0.5M sodium thiosulfate/2% (w/v) hyaluronan (STS Composition) or vehicle was dosed intratympanically onto the round window in the left ear (LE) as described above, and the right ear (RE) was left untreated in the guinea pigs (FIG. 5).\nBecause of heterogeneity of hearing loss after cisplatin challenge, the untreated right ears was used to select the animals with hearing loss. There were 21 animals with right ear threshold >60 dB at 32 kHz. Of these 21 animals, 3 with otitis media were excluded, leaving 18 animals for the final analysis. 10 animals were dosed with vehicle and 8 animals were dosed with STS Composition (FIG. 4B). […]", "data": [{"smiles": "O=S([O-])([O-])=S.[Na+].[Na+]", "note": "[sodium thiosulfate]", "values": [{"measurement": "protection (on average)", "result": 80, "unit": "%"}]}]}
